{"source": "patent US12312324B2", "about": "“Fluorine-containing substituted benzothiophene compound, and pharmaceutical composition and application thereof” (Shanghai Institute of Materia Medica, Chinese Academy of …, priority 2019, dated 2025)", "key": {"[1]": {"biological_target": "human-derived interferon gene stimulating protein (Homo sapiens, UniProt Q86WV6, G230A/H232R/R293Q/R71H)", "sequence (Q86WV6 whole entry R71H/G230A/H232R/R293Q)": "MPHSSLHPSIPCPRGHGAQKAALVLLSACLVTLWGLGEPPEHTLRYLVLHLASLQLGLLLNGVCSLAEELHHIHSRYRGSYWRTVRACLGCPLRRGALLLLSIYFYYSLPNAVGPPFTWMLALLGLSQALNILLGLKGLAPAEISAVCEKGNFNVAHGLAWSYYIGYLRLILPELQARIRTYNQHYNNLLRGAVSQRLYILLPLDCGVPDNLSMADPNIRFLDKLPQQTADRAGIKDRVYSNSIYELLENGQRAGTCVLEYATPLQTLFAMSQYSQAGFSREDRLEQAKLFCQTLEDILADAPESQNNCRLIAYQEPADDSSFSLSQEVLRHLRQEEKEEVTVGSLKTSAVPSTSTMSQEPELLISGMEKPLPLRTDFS", "experiment": "THP1-Blue-ISG reporter cell screening for activation of interferon gene stimulating protein and promotion of IFN-β expression", "conditions": "10 μM, THP1-Blue-ISG cells; for Fold change (ratio relative to the control experiment), First experiment / Fold change (ratio relative to the control experiment), Second experiment / Fold change (ratio relative to the control experiment), Average value: 24 hours, OD650; for Fold change (ratio relative to the control experiment), Average value: average of two experiments"}, "[2]": {"experiment": "Pharmacokinetic properties in rats", "assay_type": "in vivo"}, "[3]": {"conditions": "rat, plasma, Intravenous (1 mg/kg)"}}, "note": "“Also recorded” adds a separate entry of the source.", "data": [{"compound": "C=Cc1cc2cc(C(F)(F)CCC(=O)O)sc2cc1OC", "note": "[Compound S29]", "values": [{"measurement": "Judgement", "setting": "[1]", "value": "effective (when the Fold change≥2, it is effective)"}, {"measurement": "Fold change (ratio relative to the control experiment), First experiment", "setting": "[1]", "value": 25.26}, {"measurement": "Fold change (ratio relative to the control experiment), Second experiment", "setting": "[1]", "value": 34.05}, {"measurement": "Fold change (ratio relative to the control experiment), Average value", "setting": "[1]", "value": 29.66}]}, {"compound": "CO/C1=C(\\OC)C/C(F)=c2/cc(C(F)(F)CCC(=O)N(O)C(C)C)s/c2=C/C1", "note": "[Compound S21]", "values": [{"measurement": "Judgement", "setting": "[1]", "value": "effective (when the Fold change≥2, it is effective)"}, {"measurement": "Fold change (ratio relative to the control experiment), First experiment", "setting": "[1]", "value": 27.51}, {"measurement": "Fold change (ratio relative to the control experiment), Second experiment", "setting": "[1]", "value": 32.63}, {"measurement": "Fold change (ratio relative to the control experiment), Average value", "setting": "[1]", "value": 30.07}]}, {"compound": "COc1cc2cc(C(F)(F)CCC(=O)OC(C)C)sc2cc1OC", "note": "[Compound S3]", "values": [{"measurement": "Judgement", "setting": "[1]", "value": "effective (when the Fold change≥2, it is effective)"}, {"measurement": "Fold change (ratio relative to the control experiment), First experiment", "setting": "[1]", "value": 24.31}, {"measurement": "Fold change (ratio relative to the control experiment), Second experiment", "setting": "[1]", "value": 33.69}, {"measurement": "Fold change (ratio relative to the control experiment), Average value", "setting": "[1]", "value": 29.00}]}, {"compound": "COc1cc2cc(C(F)(F)CCC(=O)O)sc2cc1OC", "note": "[Compound S2]", "values": [{"measurement": "Judgement", "setting": "[1]", "value": "effective (when the Fold change≥2, it is effective)"}, {"measurement": "Fold change (ratio relative to the control experiment), First experiment", "setting": "[1]", "value": 23.95}, {"measurement": "Fold change (ratio relative to the control experiment), Second experiment", "setting": "[1]", "value": 25.94}, {"measurement": "Fold change (ratio relative to the control experiment), Average value", "setting": "[1]", "value": 24.95}, {"measurement": "plasma exposure (AUC) of intravenous injection relative to that of 1a", "setting": "[2]; intravenous injection, versus compound 1a", "value": "about 4.4 times"}, {"measurement": "pharmacokinetic properties (T1/2, Cmax, AUC, MRT) compared with compound 1a (in words)", "setting": "[2]; oral or intravenous, versus compound 1a", "value": "significantly superior; also recorded: significantly better"}, {"measurement": "AUC", "setting": "[2]; [3]", "value": 7180, "unit": "ng·h/mL"}, {"measurement": "MRT", "setting": "[2]; [3]", "value": 51.2, "unit": "min"}, {"measurement": "clearance", "setting": "[2]; [3]", "value": 2.33, "unit": "mL/min/kg"}, {"measurement": "half-life", "setting": "[2]; [3]", "value": 40.1, "unit": "min"}, {"measurement": "AUC", "setting": "[2]; rat, plasma, Oral (3 mg/kg)", "value": 5820, "unit": "ng·h/mL"}, {"measurement": "Cmax", "setting": "[2]; rat, plasma, Oral (3 mg/kg)", "value": 6910, "unit": "ng/mL"}, {"measurement": "MRT", "setting": "[2]; rat, plasma, Oral (3 mg/kg)", "value": 69, "unit": "min"}, {"measurement": "half-life", "setting": "[2]; rat, plasma, Oral (3 mg/kg)", "value": 44.4, "unit": "min"}]}, {"compound": "COc1cc2cc(C(F)(F)CCC(=O)N(C)O)sc2cc1OC", "note": "[Compound S6]", "values": [{"measurement": "Judgement", "setting": "[1]", "value": "effective (when the Fold change≥2, it is effective)"}, {"measurement": "Fold change (ratio relative to the control experiment), First experiment", "setting": "[1]", "value": 15.82}, {"measurement": "Fold change (ratio relative to the control experiment), Second experiment", "setting": "[1]", "value": 26.22}, {"measurement": "Fold change (ratio relative to the control experiment), Average value", "setting": "[1]", "value": 21.02}]}, {"compound": "COc1cc2cc(C(F)(F)CCC(=O)N(O)C3CC3)sc2cc1OC", "note": "[Compound S15]", "values": [{"measurement": "Judgement", "setting": "[1]", "value": "effective (when the Fold change≥2, it is effective)"}, {"measurement": "Fold change (ratio relative to the control experiment), First experiment", "setting": "[1]", "value": 26.23}, {"measurement": "Fold change (ratio relative to the control experiment), Second experiment", "setting": "[1]", "value": 35.12}, {"measurement": "Fold change (ratio relative to the control experiment), Average value", "setting": "[1]", "value": 30.68}]}, {"compound": "COc1cc2sc(C(F)(F)CCC(=O)O)cc2cc1Br", "note": "[Compound S28]", "values": [{"measurement": "Judgement", "setting": "[1]", "value": "effective (when the Fold change≥2, it is effective)"}, {"measurement": "Fold change (ratio relative to the control experiment), First experiment", "setting": "[1]", "value": 23.75}, {"measurement": "Fold change (ratio relative to the control experiment), Second experiment", "setting": "[1]", "value": 33.73}, {"measurement": "Fold change (ratio relative to the control experiment), Average value", "setting": "[1]", "value": 28.74}]}, {"compound": "COc1cc2cc(C(F)(F)CCC(=O)N(O)Cc3ccccc3)sc2cc1OC", "note": "[Compound S11]", "values": [{"measurement": "Judgement", "setting": "[1]", "value": "effective (when the Fold change≥2, it is effective)"}, {"measurement": "Fold change (ratio relative to the control experiment), First experiment", "setting": "[1]", "value": 20.44}, {"measurement": "Fold change (ratio relative to the control experiment), Second experiment", "setting": "[1]", "value": 30.93}, {"measurement": "Fold change (ratio relative to the control experiment), Average value", "setting": "[1]", "value": 25.69}]}, {"compound": "COc1cc2cc(C(F)(F)CCC(=O)NOc3ccccc3)sc2cc1OC", "note": "[Compound S18]", "values": [{"measurement": "Judgement", "setting": "[1]", "value": "effective (when the Fold change≥2, it is effective)"}, {"measurement": "Fold change (ratio relative to the control experiment), First experiment", "setting": "[1]", "value": 17.62}, {"measurement": "Fold change (ratio relative to the control experiment), Second experiment", "setting": "[1]", "value": 28.34}, {"measurement": "Fold change (ratio relative to the control experiment), Average value", "setting": "[1]", "value": 22.98}]}, {"compound": "COC1=C(OC)CC=c2cc(C(F)CCCC(=O)N(O)C(C)C)sc2=C1", "note": "(stereo not shown) [Compound S24]", "values": [{"measurement": "Judgement", "setting": "[1]", "value": "effective (when the Fold change≥2, it is effective)"}, {"measurement": "Fold change (ratio relative to the control experiment), First experiment", "setting": "[1]", "value": 15.53}, {"measurement": "Fold change (ratio relative to the control experiment), Second experiment", "setting": "[1]", "value": 24.54}, {"measurement": "Fold change (ratio relative to the control experiment), Average value", "setting": "[1]", "value": 20.04}]}, {"compound": "O=C(O)CCC(F)(F)c1cc2cc3c(cc2s1)OCO3", "note": "[Compound S26]", "values": [{"measurement": "Judgement", "setting": "[1]", "value": "effective (when the Fold change≥2, it is effective)"}, {"measurement": "Fold change (ratio relative to the control experiment), First experiment", "setting": "[1]", "value": 16.24}, {"measurement": "Fold change (ratio relative to the control experiment), Second experiment", "setting": "[1]", "value": 25.03}, {"measurement": "Fold change (ratio relative to the control experiment), Average value", "setting": "[1]", "value": 20.62}]}, {"compound": "COc1cc2cc(C(F)(F)CCC(=O)N(O)C(F)F)sc2cc1OC", "note": "[Compound S7]", "values": [{"measurement": "Judgement", "setting": "[1]", "value": "effective (when the Fold change≥2, it is effective)"}, {"measurement": "Fold change (ratio relative to the control experiment), First experiment", "setting": "[1]", "value": 23.95}, {"measurement": "Fold change (ratio relative to the control experiment), Second experiment", "setting": "[1]", "value": 29.94}, {"measurement": "Fold change (ratio relative to the control experiment), Average value", "setting": "[1]", "value": 26.95}]}, {"compound": "COc1cc2sc(C(F)(F)CCC(=O)O)cc2c(F)c1OC", "note": "[Compound S19]", "values": [{"measurement": "Judgement", "setting": "[1]", "value": "effective (when the Fold change≥2, it is effective)"}, {"measurement": "Fold change (ratio relative to the control experiment), First experiment", "setting": "[1]", "value": 25.73}, {"measurement": "Fold change (ratio relative to the control experiment), Second experiment", "setting": "[1]", "value": 31.81}, {"measurement": "Fold change (ratio relative to the control experiment), Average value", "setting": "[1]", "value": 28.77}]}, {"compound": "COc1cc2cc(C(F)(F)CCC(=O)N(O)C(C)C)sc2cc1OC", "note": "[Compound S10]", "values": [{"measurement": "Judgement", "setting": "[1]", "value": "effective (when the Fold change≥2, it is effective)"}, {"measurement": "Fold change (ratio relative to the control experiment), First experiment", "setting": "[1]", "value": 25.41}, {"measurement": "Fold change (ratio relative to the control experiment), Second experiment", "setting": "[1]", "value": 34.36}, {"measurement": "Fold change (ratio relative to the control experiment), Average value", "setting": "[1]", "value": 29.89}]}, {"compound": "COc1cc2cc(C(F)(F)CCC(=O)N(O)C(F)(F)c3ccccc3)sc2cc1OC", "note": "[Compound S12]", "values": [{"measurement": "Judgement", "setting": "[1]", "value": "effective (when the Fold change≥2, it is effective)"}, {"measurement": "Fold change (ratio relative to the control experiment), First experiment", "setting": "[1]", "value": 22.38}, {"measurement": "Fold change (ratio relative to the control experiment), Second experiment", "setting": "[1]", "value": 31.54}, {"measurement": "Fold change (ratio relative to the control experiment), Average value", "setting": "[1]", "value": 26.96}]}]}
